Where a name gives a salt, the structure may show the parent alone. Read-outs that look alike come from different tables or passages of the source.
Assay: logP by HPLC on reversed-phase columns (C 18), EEC Directive 79/831 Annex V.A8
Format: physicochemical
Conditions: for chromatographic logP: reversed-phase HPLC column (C 18)
[1] = values marked [b], footnote not given
[2] = pH 2.3, pH 2.3, 0.1% aqueous phosphoric acid and acetonitrile, read-out: logP [a]
[3] = method marker [a], footnote not given
[4] = method marker [b], footnote not given, compound 68 value matches logP (pH 2.3)
[5] = method marker [c], footnote not given

SMILES | logP [3] | further results
COCC(C)Nc1nc(Nc2ccc(NC(C)=O)c(OC)c2)ncc1Br (racemic) [Example 125] | – | logP [1]: 1.46[b]
COCC(C)Nc1nc(Nc2ccc(C(=O)Nc3ccccc3)cc2)ncc1Br (racemic) [Example 126] | – | logP [1]: 1.92[b]
CNC(=O)c1ccc(Nc2ncc(Br)c(NC(C)COC)n2)cc1 (racemic) [Example 127] | – | logP [1]: 1.46[b]
C=CCNC(=O)c1ccc(Nc2ncc(Br)c(NC(C)COC)n2)cc1 (racemic) [Example 128] | – | logP [1]: 1.75[b]
CCOC(=O)Nc1cccc(Nc2ncc(Br)c(NC(C)COC)n2)c1 (racemic) [Example 129] | – | logP [1]: 1.87[b]
CNC(=O)Oc1cccc(Nc2ncc(Br)c(NC(C)COC)n2)c1 (racemic) [Example 130] | – | logP [1]: 1.56[b]
COCC(C)Nc1nc(Nc2cccc(NC=O)c2)ncc1Br (racemic) [Example 132] | – | logP [1]: 1.43[b]
CNC(=O)c1ccc(Nc2ncc(Cl)c(NC(C)COC)n2)cc1 (racemic) [Example 135] | – | logP [1]: 1.38[b]
COCC(C)Nc1nc(Nc2ccc(C(=O)NC(C)(C)C)cc2)ncc1Cl (racemic) [Example 137] | – | logP [1]: 2.06[b]
COCC(C)Nc1nc(Nc2ccc(NC=O)cc2)ncc1Cl (racemic) [Example 138] | – | logP [1]: 1.28[b]
COCC(C)Nc1nc(Nc2ccc(NC(C)=O)c(OC)c2)ncc1Cl (racemic) [Example 140] | – | logP [1]: 1.38[b]
COCC(C)Nc1nc(Nc2ccc(C(=O)Nc3ccccc3)cc2)ncc1Cl (racemic) [Example 141] | – | logP [1]: 1.8[b]
CNC(=O)c1cccc(Nc2ncc(Cl)c(NC(C)COC)n2)c1 (racemic) [Example 142] | – | logP [1]: 1.32[b]
CCOC(=O)Nc1cccc(Nc2ncc(Cl)c(NC(C)COC)n2)c1 (racemic) [Example 143] | – | logP [1]: 1.78[b]
CNC(=O)Oc1cccc(Nc2ncc(Cl)c(NC(C)COC)n2)c1 (racemic) [Example 144] | – | logP [1]: 1.48[b]
COCC(C)Nc1nc(Nc2ccc(S(C)(=O)=O)cc2)ncc1Cl (racemic) [Example 145] | – | logP [1]: 1.85[b]
COCC(C)Nc1nc(Nc2ccc(NC(=O)C(C)(C)C)cc2)ncc1Cl (racemic) [Example 146] | – | logP [1]: 1.78[b]
CN1CCN(Cc2cccc([N+](=O)[O-])c2)C1=O [1-methyl-3-(3-nitrobenzyl)imidazolidin-2-one] | – | chromatographic logP [2]: 2.03
COCCNc1nc(Nc2cc(OC)c(OC)c(OC)c2)ncc1Cl [Example 1] | 1.45[a]; | logP [4]: 1.45[b]
COCCNc1nc(Nc2cccc(Cl)c2)ncc1Cl [Example 2] | 2.13[a]; | logP [4]: 2.13[b]

SMILES | logP [3] | further results
COCCNc1nc(Nc2ccccc2)ncc1Cl [Example 3] | 1.41[a] | –
COCCNc1nc(Nc2cc(OC)cc(OC)c2)ncc1Cl [Example 4] | 1.67[a] | –
COCCNc1nc(Nc2cccc(C(C)=O)c2)ncc1Cl [Example 5] | 1.49[a]; | logP [4]: 1.49[b]
COCCNc1nc(Nc2ccc(S(=O)(=O)N(C)C)cc2)ncc1Cl [Example 6] | 1.9[a]; | logP [4]: 1.9[b]
COCCNc1nc(Nc2ccc(N3CCN(C(=O)OC(C)(C)C)CC3)cc2)ncc1Cl [Example 7] | 2.05[a]; | logP [4]: 2.05[b]
COCC(C)Nc1nc(Nc2ccc(OC(C)C)cc2)ncc1Cl (stereo not drawn) [Example 8] | 1.69[a] | –
COCC(C)Nc1nc(Nc2ccc(C(C)C)cc2)ncc1Cl (stereo not drawn) [Example 9] | 2.38[a] | –
COCC(C)Nc1nc(Nc2cccc(Cl)c2)ncc1Cl (stereo not drawn) [Example 10] | 2.58[a] | –
COCCNc1nc(Nc2ccc(C(C)C)cc2)ncc1Cl [Example 11] | 2.09[a] | –
COCCNc1nc(Nc2ccc(OC(C)C)cc2)ncc1Cl [Example 12] | 1.78[a] | –
CCN(CC)c1ccc(Nc2ncc(Cl)c(NC(C)COC)n2)cc1 (stereo not drawn) [Example 13] | 1.16[a] | –
COCC(C)Nc1nc(Nc2cc(OC)cc(OC)c2)ncc1Cl (stereo not drawn) [Example 14] | 1.94[a] | –
COCC(C)Nc1nc(Nc2cccc(C(C)=O)c2)ncc1Cl (stereo not drawn) [Example 15] | 1.72[a] | –
COCC(C)Nc1nc(Nc2ccc(S(=O)(=O)N(C)C)cc2)ncc1Cl (stereo not drawn) [Example 16] | 2.25[a]; | logP [4]: 2.26[b]; logP [a] (pH 2.3, 0.1% aqueous phosphoric acid and acetonitrile): 2.25
CCC(CO)Nc1nc(Nc2cccc(Cl)c2)ncc1Cl (stereo not drawn) [Example 17] | 1.96[a] | –
CCC(CO)Nc1nc(Nc2ccccc2)ncc1Cl (stereo not drawn) [Example 18] | 1.41[a] | –
CCC(CO)Nc1nc(Nc2cc(OC)cc(OC)c2)ncc1Cl (stereo not drawn) [Example 19] | 1.64[a] | –
CCC(CO)Nc1nc(Nc2cccc(C(C)=O)c2)ncc1Cl (stereo not drawn) [Example 21] | 1.53[a] | –
CCC(CO)Nc1nc(Nc2ccc(S(=O)(=O)N(C)C)cc2)ncc1Cl (stereo not drawn) [Example 22] | 1.83[a] | –
CCC(CO)Nc1nc(Nc2ccc(N3CCN(C(=O)OC(C)(C)C)CC3)cc2)ncc1Cl (stereo not drawn) [Example 23] | 2.02[a] | –

SMILES | logP [3] | further results
COCC(C)Nc1nc(Nc2cc(OC)c(OC)c(OC)c2)ncc1C(F)(F)F (stereo not drawn) [Example 24] | – | logP [4]: 2.46[b]
COCC(C)Nc1nc(Nc2ccccc2)ncc1C(F)(F)F (stereo not drawn) [Example 25] | 2.96[a]; | logP [4]: 2.74[b]; logP [5]: 3.52[c];
CNc1nc(Nc2ccc(S(=O)(=O)N(C)C)cc2)ncc1Cl [Example 26] | 1.61[a] | –
CN(C)c1nc(Nc2ccc(S(=O)(=O)N(C)C)cc2)ncc1Cl [Example 27] | 2.49[a] | –
CN(C)c1nc(Nc2ccc(S(C)(=O)=O)cc2)ncc1Cl [Example 28] | 1.98[a] | –
COCC(C)Nc1nc(Nc2cccc(S(=O)(=O)N3CCOCC3)c2)ncc1Cl (stereo not drawn) [Example 29] | 2.1[a]; | logP [4]: 2.04[b]
CSC[C@H](C)Nc1nc(Nc2ccc(S(=O)(=O)N(C)C)cc2)ncc1Cl [Example 30] | 2.59[a] | –
COCC(C)Nc1nc(Nc2cccc(S(=O)(=O)N(C)C)c2)ncc1Cl (stereo not drawn) [Example 31] | 2.02[a]; | logP [4]: 2.18[b]
CCCCNc1nc(Nc2ccccc2)ncc1Cl [Example 32] | 2.12[a] | –
CN(C)c1nc(Nc2ccccc2)ncc1Cl [Example 33] | 1.78[a]; | logP [4]: 1.73[b]
CC(C)(C)Nc1nc(Nc2ccccc2)ncc1Cl [Example 34] | 2.17[a] | –
CNc1nc(Nc2ccccc2)ncc1Cl [Example 35] | 1.27[a] | –
CC(C)Nc1nc(Nc2ccccc2)ncc1Cl [Example 36] | 1.77[a] | –
CSCC(C)Nc1nc(Nc2ccccc2)ncc1Cl (stereo not drawn) [Example 37] | 2.04[a] | –
COCC(C)Nc1nc(Nc2ccc(C(=O)OC)cc2)ncc1Cl (stereo not drawn) [Example 38, Methyl 4-({5-chloro-4-[(1-methoxypropan-2-yl)amino]pyrimidin-2-yl}amino)benzene-carboxylate hydrochloride] | – | chromatographic logP (method marker [c], footnote not given, read-out: logP): 3.05; chromatographic logP (pH 2.3, method marker [a], footnote not given, read-out: logP): 2.31; chromatographic logP [2]: 2.31
COC(=O)c1ccc(Nc2ncc(Cl)c(N(C)C)n2)cc1 [Example 39] | 2.47[a]; | logP [5]: 3.3[c]
CCC(C)N(C)c1nc(Nc2ccccc2)ncc1Cl (stereo not drawn) [Example 40] | 2.85[a] | –
CCC(C)N(C)c1nc(Nc2cccc(C(C)=O)c2)ncc1Cl.Cl (stereo not drawn) [Example 41] | 2.88[a] | –
CC(=O)c1cccc(Nc2ncc(Cl)c(N(C)C)n2)c1.Cl [Example 42] | 1.84[a] | –
CC(C)N(C)c1nc(Nc2cccc(S(=O)(=O)N(C)C)c2)ncc1Cl [Example 43] | 2.96[a] | –
